Drawing on ChEMBL document CHEMBL1153697, “Bioactive constituents of the stem bark of Mitrephora glabra” (J Nat Prod, 2009), this text covers MIC, IC50 and Activity for 12 compounds.

Molecules are shown by their SMILES. In brackets after ≈: the same amount, converted by molar mass. Activity calls are given as the source filed them.

Experiment [1] concerns Mycolicibacterium smegmatis. Put plainly: Antibacterial activity against Mycobacterium smegmatis after 3 days by broth microdilution method. The class given is functional. Particulars: 72 h. For orientation: Dilution methods test growth across graded concentrations, often in twofold steps.
For experiment [2], the system named is Micrococcus luteus. Put plainly: Antibacterial activity against Micrococcus luteus after 3 days by broth microdilution method. In kind it is functional. Particulars: 72 h.
The subject of experiment [3] is Saccharomyces cerevisiae. Put plainly: Antifungal activity against Saccharomyces cerevisiae after 3 days by broth microdilution method. The class given is functional. Particulars: 72 h.
In experiment [4] the test system is Aspergillus niger. Put plainly: Antifungal activity against Aspergillus niger after 3 days by broth microdilution method. In kind it is functional. Particulars: 72 h.
Experiment [5] deals with KB. Put plainly: Cytotoxicity against human KB cells after 3 days by sulforhodamine B assay. The class given is functional, cell-based. Particulars: for IC50: 72 h.
The subject of experiment [6] is MCF7. Put plainly: Cytotoxicity against human MCF7 cells after 3 days by sulforhodamine B assay. Particulars: for IC50: MCF7, 72 h. In kind it is functional, cell-based. (In general: In SRB staining, fixed cells bind dye roughly in proportion to their protein.)
Experiment [7] has as its system NCI-H460. Put plainly: Cytotoxicity against human NCI-H460 cells after 3 days by sulforhodamine B assay. In kind it is functional, cell-based. The following applies: for IC50: NCI-H460, 72 h.
Experiment [8] has as its system SF-268. Put plainly: Cytotoxicity against human SF268 cells after 3 days by sulforhodamine B assay. Particulars: for IC50: SF-268, 72 h. The class given is functional, cell-based.

In general, MIC refers to the smallest concentration in the dilution series that meets the test's criterion for growth inhibition. A lower MIC goes with inhibition by little substance. `NC[C@H]1O[C@H](O[C@H]2[C@H](O)[C@@H](O[C@H]3O[C@H](CO)[C@@H](O)[C@H](N)[C@H]3O)[C@H](N)C[C@@H]2N)[C@H](O)[C@@H](O)[C@@H]1O` [KANAMYCIN]: in experiment [1], 0.2 µg/mL (≈ 0.413 µM) was the least that counted as inhibitory (MIC).

The IC50 is the concentration needed to halve the response being measured. The low end stands for higher potency, the high end for lower potency. Turning to `C=C1C[C@@]23CC[C@H]4[C@@](C)(CCC[C@]4(C)C(=O)O)[C@@H]2CC[C@@H]1C3`, the MIC in experiment [2] was 50 µg/mL (≈ 165 µM); in experiment [1], 50 µg/mL (≈ 165 µM); in experiment [3], 50 µg/mL (≈ 165 µM); in experiment [4], 100 µg/mL (≈ 331 µM). Further, the half-inhibitory concentration (IC50) in experiment [5], in experiment [6], in experiment [7] and in experiment [8] was over 10 µM throughout.

`CC1(C)S[C@@H]2[C@H](NC(=O)[C@H](N)c3ccccc3)C(=O)N2[C@H]1C(=O)O` [AMPICILLIN] came in with an MIC in experiment [2] of 0.1 µg/mL (≈ 0.286 µM).

For the compound `C=C1C[C@]23C[C@H]1CC[C@H]2[C@]1(C)CCC[C@@]2(C)C(=O)O[C@@H](C3=O)[C@@H]12` [MITREKAURENONE], the MIC amounted to 150 µg/mL (≈ 477 µM) in experiment [2], 38 µg/mL (≈ 121 µM) in experiment [1], 38 µg/mL (≈ 121 µM) in experiment [3] and 38 µg/mL (≈ 121 µM) in experiment [4]. In addition, the half-inhibitory concentration (IC50) in experiment [5], in experiment [6], in experiment [7] and in experiment [8] was over 10 µM in each case.

As for `C=C1C[C@]2(C(=O)O)C[C@H]1CC[C@H]2[C@]1(C)CCC[C@@](C)(C(=O)OC)[C@H]1C(=O)O`, the MIC came out at 150 µg/mL (≈ 396 µM) in experiment [2], 75 µg/mL (≈ 198 µM) in experiment [1], 150 µg/mL (≈ 396 µM) in experiment [3] and 150 µg/mL (≈ 396 µM) in experiment [4]. In addition, the half-inhibitory concentration (IC50) in experiment [5], in experiment [6], in experiment [7] and in experiment [8] was over 10 µM throughout.

Regarding `C[C@@H]1[C@H](O)[C@@H](C)/C=C/C=C/C=C/C=C/C=C/C=C/C=C/[C@H](O[C@@H]2O[C@H](C)[C@@H](O)[C@H](N)[C@@H]2O)C[C@@H]2O[C@](O)(C[C@@H](O)C[C@@H](O)[C@H](O)CC[C@@H](O)C[C@@H](O)CC(=O)O[C@H]1C)C[C@H](O)[C@H]2C(=O)O` [AMPHOTERICIN B], the MIC in experiment [3] and in experiment [4] was 25 µg/mL (≈ 27.1 µM) each time.

In the case of `CCCCC#CC#CC#CCCCCCCCC(=O)O`, the minimal inhibitory concentration (MIC) in experiment [2] stood at 25 µg/mL (≈ 91.8 µM); in experiment [1], 25 µg/mL (≈ 91.8 µM); in experiment [3], 25 µg/mL (≈ 91.8 µM); in experiment [4], 50 µg/mL (≈ 184 µM). For the same compound, the IC50 in experiment [5], in experiment [6], in experiment [7] and in experiment [8] was 10 µM throughout.

For `C=CCCC#CC#CC#CCCCCCCCC(=O)OC` [METHYLOROPHEATE], the MIC in experiment [2] turned out to be 50 µg/mL (≈ 176 µM); in experiment [1] it was 12 µg/mL (≈ 42.2 µM); in experiment [3], 25 µg/mL (≈ 87.9 µM); in experiment [4] it was 25 µg/mL (≈ 87.9 µM). Further, the outcome in experiment [5], in experiment [6], in experiment [7] and in experiment [8] was inactive.

With `O=C1c2ccccc2-c2c3c(cc4ccnc1c24)OCO3` [LIRIODENINE], the MIC in experiment [2] amounted to 6.3 µg/mL (≈ 22.9 µM); in experiment [1], 12 µg/mL (≈ 43.6 µM); in experiment [3], 12 µg/mL (≈ 43.6 µM); in experiment [4] it was 25 µg/mL (≈ 90.8 µM). In addition, the IC50 in experiment [5], in experiment [6], in experiment [7] and in experiment [8] was 5 µM throughout.

Regarding `C=CCCC#CC#CC#CCCCCCCCC(=O)O` [OROPHEIC ACID], the MIC in experiment [2] was 94 µg/mL (≈ 348 µM); in experiment [1], 94 µg/mL (≈ 348 µM); in experiment [3] it was 47 µg/mL (≈ 174 µM); in experiment [4] it was 188 µg/mL (≈ 695 µM). Moreover, the IC50 in experiment [5], in experiment [6], in experiment [7] and in experiment [8] was 10 µM each time.

Turning to `C=CCCC#CC#CC#C/C=C/CCCC[C@@H]1C[C@@H](CO)OC1=O`, the minimal inhibitory concentration (MIC) turned out to be 50 µg/mL (≈ 154 µM) in experiment [2], 12 µg/mL (≈ 37 µM) in experiment [1], 12 µg/mL (≈ 37 µM) in experiment [3] and 12 µg/mL (≈ 37 µM) in experiment [4]. In addition, the IC50 in experiment [5], in experiment [6], in experiment [7] and in experiment [8] was 10 µM in each case.

As to `C=CCCC#CC#CC#CCCCCCC[C@@H]1C[C@@H](CO)OC1=O` [OROPHEOLIDE], the MIC turned out to be 125 µg/mL (≈ 383 µM) in experiment [2], 31 µg/mL (≈ 95 µM) in experiment [1], 63 µg/mL (≈ 193 µM) in experiment [3] and 250 µg/mL (≈ 766 µM) in experiment [4]. Further, the IC50 in experiment [5], in experiment [6], in experiment [7] and in experiment [8] was 10 µM in each case.
